From patent publication US7541353B2, “Compounds for the treatment of hepatitis C” (Bristol-Myers Squibb Company, priority 2007, dated 2009)
Where two headings read alike, the source gives them in different places.

Experiments:
[1] = biological target: T1, HCV NS5B (Hepatitis C virus genotype 1b, UniProt Q9WMX2); assay: Modified HCV NS5B RdRp enzyme assay (preincubation protocol); assay type: biochemical
T1 construct: The cDNA encoding the NS5B protein of HCV, genotype 1b; made in house; host or cells: E. coli BL21(DE3)
T1 sequence (Q9WMX2 2420-2992): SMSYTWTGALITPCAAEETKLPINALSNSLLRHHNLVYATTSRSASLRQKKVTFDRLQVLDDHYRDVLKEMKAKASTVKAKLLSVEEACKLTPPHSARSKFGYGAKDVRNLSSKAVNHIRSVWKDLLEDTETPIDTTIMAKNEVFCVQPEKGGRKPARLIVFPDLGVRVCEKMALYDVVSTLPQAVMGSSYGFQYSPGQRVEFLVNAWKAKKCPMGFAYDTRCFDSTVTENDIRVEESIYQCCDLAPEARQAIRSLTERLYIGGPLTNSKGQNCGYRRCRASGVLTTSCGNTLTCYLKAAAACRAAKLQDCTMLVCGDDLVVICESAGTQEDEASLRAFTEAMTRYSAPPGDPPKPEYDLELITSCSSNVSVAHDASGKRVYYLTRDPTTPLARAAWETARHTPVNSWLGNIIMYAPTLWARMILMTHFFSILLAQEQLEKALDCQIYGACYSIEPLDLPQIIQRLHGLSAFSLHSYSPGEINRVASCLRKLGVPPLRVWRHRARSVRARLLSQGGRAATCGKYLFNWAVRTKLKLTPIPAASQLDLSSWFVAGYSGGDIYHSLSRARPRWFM
Procedure: HCV NS5B RdRp cloning, expression, and purification. The cDNA encoding the NS5B protein of HCV, genotype 1b, was cloned into the pET21a expression vector. The protein was expressed with an 18 amino acid C-terminal truncation to enhance the solubility. The E. coli competent cell line BL21(DE3) was used for expression of the protein. Cultures were grown at 37° C. for ˜4 hours until the cultures reached an optical density of 2.0 at 600 nm. The cultures were cooled to 20° C. and induced with 1 mM IPTG. Fresh ampicillin was added to a final concentration of 50 μg/ml and the cells were grown overnight at 20° C.
Cell pellets (3L) were lysed for purification to yield 15-24 mgs of purified NS5B. The lysis buffer consisted of 20 mM Tris-HCl, pH 7.4, 500 mM NaCl, 0.5% triton X-100, 1 mM DTT, 1 mM EDTA, 20% glycerol, 0.5 mg/ml lysozyme, 10 mM MgCl2, 15 ug/ml deoxyribonuclease I, and Complete™ protease inhibitor tablets (Roche). After addition of the lysis buffer, frozen cell pellets were resuspended using a tissue homogenizer. To reduce the viscosity of the sample, aliquots of the lysate were sonicated on ice using a microtip attached to a Branson sonicator. The sonicated lysate was centrifuged at 100,000×g for 1 hr at 4° C. and filtered through a 0.2 μm filter unit (Corning).
The protein was purified using two sequential chromatography steps: Heparin sepharose CL-6B and polyU sepharose 4B (Pharmacia). The chromatography buffers were identical to the lysis buffer but contained no lysozyme, deoxyribonuclease I, MgCl2 or protease inhibitor and the NaCl concentration of the buffer was adjusted according to the requirements for charging the protein onto the column. Each column was eluted with a NaCl gradient which varied in length from 5-50 column volumes depending on the column type. After the final chromatography step, the resulting purity of the enzyme is >90% based on SDS-PAGE analysis. The enzyme was aliquoted and stored at −80° C.
Standard HCV NS5B RdRp enzyme assay. HCV RdRp genotype 1b assays were run in a final volume of 60 μl in 96 well plates (Corning 3600). The assay buffer is composed of 20 mM Hepes, pH 7.5, 2.5 mM KCl, 2.5 mM MgCl2, 1 mM DTT, 1.6 U RNAse inhibitor (Promega N2515), 0.01 mg/ml BSA (Sigma B6917), and 2% glycerol. All compounds were serially diluted (3-fold) in DMSO and diluted further in water such that the final concentration of DMSO in the assay was 2%. HCV RdRp genotype 1b enzyme was used at a final concentration of 28 nM. A polyA template was used at 6 nM, and a biotinylated oligo-dT12 primer was used at 180 nM final concentration. Template was obtained commercially (Amersham 27-4110). Biotinylated primer was prepared by Sigma Genosys. 3H-UTP was used at 0.6 μCi (0.29 μM total UTP). Reactions were initiated by the addition of enzyme, incubated at 30° C. for 60 min, and stopped by adding 25 μl of 50 mM EDTA containing SPA beads (4 μg/μl, Amersham RPNQ 0007). Plates were read on a Packard Top Count NXT after >1 hr incubation at room temperature.
Modified HCV NS5B RdRp enzyme assay. A modified enzyme assay was performed essentially as described for the standard enzyme assay except for the following: The biotinylated oligo dT12 primer was precaptured on streptavidin-coated SPA beads by mixing primer and beads in assay buffer and incubating at room temperature for one hour. Unbound primer was removed after centrifugation. The primer-bound beads were resuspended in 20 mM Hepes buffer, pH 7.5 and used in the assay at final concentrations of 20 nM primer and 0.67 μg/μl beads. Order of addition in the assay: enzyme (1.75 nM) was added to diluted compound followed by the addition of a mixture of template (0.36 nM), 3H-UTP (0.6 μCi, 0.29 μM), and primer-bound beads, to initiate the reaction; concentrations given are final. Reactions were allowed to proceed for 4 hours at 30° C.
IC50 values for compounds were determined using seven different [I]. […]

[2] = tested on: HCV replicon cells; assay: HCV replicon FRET assay; assay type: cell-based
Procedure: FRET Assay Preparation. The HCV FRET screening assay was performed in 96-well cell culture plates. The FRET peptide (Anaspec, Inc.) (Taliani et al., Anal. Biochem. 1996, 240, 60-67) contains a fluorescence donor, EDANS, near one end of the peptide and an acceptor, DABCYL, near the other end. The fluorescence of the peptide is quenched by […] resonance energy transfer (RET) between the donor and the acceptor, but as the NS3 protease cleaves the peptide the products are released from RET quenching and the fluorescence of the donor becomes apparent. The assay reagent was made as follows: 5× cell Luciferase cell culture lysis reagent from Promega (#E153A) diluted to 1× with dH2O, NaCl added to 150 mM final, the FRET peptide diluted to 20 μM final from a 2 mM stock.
To prepare plates, HCV replicon cells, with or without a Renilla luciferase reporter gene, were trypsinized and plated in a 96-well plate with titrated test compounds added in columns 3 through 12; columns 1 and 2 contained a control compound (HCV control inhibitor), and the bottom row contained cells with DMSO only. The plates were then placed in a CO2 incubator at 37° C.
Assays. Subsequent to addition of the test compounds described above (FRET Assay Preparation), at various times the plate was removed and Alamar blue solution (Trek Diagnostics, #00-100) was added to measure cellular toxicity. After reading in a Cytoflour 4000 instrument (PE Biosystems), plates were rinsed with PBS and then used for FRET assay by the addition of 30 ul of the FRET peptide assay reagent described above (FRET Assay Preparation) per well. The plate was then placed into the Cytoflour 4000 instrument which had been set to 340 excite/490 emission, automatic mode for up to 20 cycles and the plate read in a kinetic mode. Typically, the signal to noise using an endpoint analysis after the reads was at least three-fold. Alternatively, after Alamar blue reading, plates were rinsed with PBS, then used for luciferase assay using the Promega Dual-Glo Luciferase Assay System or the Promega EnduRen Live Cell Substrate assay.
Compound analysis was performed by quantification of the relative HCV replicon inhibition and the relative cytotoxicity values. To calculate cytoxicity values, the average Alamar Blue fluorescence signals from the control wells were set as 100% non-toxic. The individual signals in each of the compound test wells were then divided by the average control signal and multiplied by 100% to determine […]. To calculate the HCV replicon inhibition values, an average background value was obtained from the two wells containing the highest amount of HCV control inhibitor at the end of the assay period. These numbers were similar to those obtained from naïve Huh-7 cells. The background numbers were then subtracted from the average signal obtained from the control wells and this number was used as 100% activity. The individual signals in each of the compound test wells were then divided by the averaged control values after background subtraction and multiplied by 100% to determine percent activity. EC50 values were calculated as the concentration which caused a 50% reduction in FRET or luciferase activity. The two numbers generated for the compound plate, percent cytoxicity and percent activity, were used to determine compounds of interest for further analysis.

Compound | IC50 [1] [nM] | EC50 ([2]; Hepatitis C virus) [nM] | IC50 ([1]; preincubation protocol) [nM] | EC50 ([2]; FRET assay) [nM]
COc1ccc2c(c1)C1CC1(C(=O)N1C3CCC1CC(N(C)Cc1ccccc1)C3)Cn1c-2c(C2CCCCC2)c2ccc(C(=O)NS(=O)(=O)C(C)C)cc21 (centres unmarked) [drawing 36] | 4.58 to 500 | 4.58 to 500 |  | 
COc1ccc2c(c1)C1CC1(C(=O)N1C3CCC1CC(NCC1CC1)C3)Cn1c-2c(C2CCCCC2)c2ccc(C(=O)NS(=O)(=O)N(C)C)cc21 (centres unmarked) [drawing 26] |  |  | 4.58 to 500 | 4.58 to 500
COc1ccc2c(c1)[C@@H]1C[C@]1(C(=O)N1C3CCC1CC(C)(O)C3)Cn1c-2c(C2CCCCC2)c2ccc(C(=O)NS(=O)(=O)N(C)C)cc21 (some centres unmarked) [drawing 46] | 4.58 to 500 | 4.58 to 500 |  | 
COc1ccc2c(c1)C1CC1(C(=O)N1C3CCC1CC(N(CCN(C)C)Cc1ccccc1)C3)Cn1c-2c(C2CCCCC2)c2ccc(C(=O)NS(=O)(=O)N3CCC3)cc21 (centres unmarked) | 4.58 to 500 | 4.58 to 500 |  | 
COc1ccc2c(c1)C1CC1(C(=O)N1C3CCC1CC(NCC1CC1)C3)Cn1c-2c(C2CCCCC2)c2ccc(C(=O)NS(=O)(=O)N(C)C)cc21 (centres unmarked) [drawing 23] | 4.58 to 500 | 4.58 to 500 |  | 
COc1ccc2c(c1)C1CC1(C(=O)N1C3CCC1CC(N(CCN(C)C)Cc1ccccc1)C3)Cn1c-2c(C2CCCCC2)c2ccc(C(=O)NS(=O)(=O)N(C)C)cc21 (centres unmarked) | 4.58 to 500 | 4.58 to 500 |  | 
COc1ccc2c(c1)C1CC1(C(=O)N1C3CCC[C@@H]1COC3)Cn1c-2c(C2CCCCC2)c2ccc(C(=O)NS(=O)(=O)CC(F)(F)F)cc21 (some centres unmarked) | 4.58 to 500 | 4.58 to 500 |  | 
COc1ccc2c(c1)C1CC1(C(=O)N1C3CCC1CC(NCc1ccccc1)C3)Cn1c-2c(C2CCCCC2)c2ccc(C(=O)NS(=O)(=O)N(C)C)cc21 (centres unmarked) | 4.58 to 500 | 4.58 to 500 |  | 
COc1ccc2c(c1)C1CC1(C(=O)N1C3CCC1COC3)Cn1c-2c(C2CCCCC2)c2ccc(C(=O)NS(=O)(=O)N(C)C)cc21 (centres unmarked) | 4.58 to 500 | 4.58 to 500 |  | 
COc1ccc2c(c1)C1CC1(C(=O)N1C3COCC1COC3)Cn1c-2c(C2CCCCC2)c2ccc(C(=O)NS(=O)(=O)CC(F)(F)F)cc21 (centres unmarked) | 4.58 to 500 | 4.58 to 500 |  | 
COc1ccc2c(c1)C1CC1(C(=O)N1C3COCC1COC3)Cn1c-2c(C2CCCCC2)c2ccc(C(=O)NS(=O)(=O)CC(C)C)cc21 (centres unmarked) | 4.58 to 500 | 4.58 to 500 |  | 
COc1ccc2c(c1)C1CC1(C(=O)N1C3CCC1CC(N(C)C)C3)Cn1c-2c(C2CCCCC2)c2ccc(C(=O)NS(=O)(=O)N(C)C)cc21 (centres unmarked) | 4.58 to 500 | 4.58 to 500 |  | 
COc1ccc2c(c1)C1CC1(C(=O)N1C3COCC1COC3)Cn1c-2c(C2CCCCC2)c2ccc(C(=O)NS(=O)(=O)C3CCCC3)cc21 (centres unmarked) | 4.58 to 500 | 4.58 to 500 |  | 
